{
  "source": "patent US20240238299A1",
  "about": "“USE OF PYRROLOPYRIMIDINE COMPOUND” (GUANGZHOU JOYO PHARMATECH CO., LTD, priority 2021, published 2024)",
  "key": {"[1]": {"test_system": "mouse CCL5 secretion by BV-2 cell line", "experiment": "CCL5 secretion by LPS/IFN-γ-activated BV-2 cells (ELISA)", "assay_type": "cell-based", "description": "(§1) Step 1: BV-2 cells in the exponential growth phase were collected, and viable cells were counted using a Vi-Cell XR cell counter. The cell suspension was adjusted to an appropriate concentration with the culture medium. 160 μL of cell suspension was added to each well of a 96-well cell culture plate, resulting in a final cell concentration of 12,000 cells per well. The culture plate was incubated for 24 hours in a 37° C., 5% CO2 incubator.\n(§2) Step 2: A 10 mM DMSO compound stock solution was diluted at a ratio of 1:4 using DMSO to prepare a series of 1000× test compound solutions. These 1000× test compound solutions were further diluted at a ratio of 1:100 using cell culture medium to prepare a series of 10× test compound solutions. Finally, the 96-well plate that had been plated with cells the day before was taken out. According to the experimental well plate loading design, 20 μL of the corresponding 10× solution was added to each well, with three duplicate wells for each drug concentration. The final concentrations of the test compounds used in the experiment (i.e., 1× solutions) have a range of 10, 2.5, 0.625, 0.156, 0.0391, 0.0098, and 0.0024 μM. The final DMSO concentration in each well was 0.1%.\n(§3) After the compound was added, the 96-well plate was incubated for half an hour in the 37° C., 5% CO2 incubator.\nAfter the pre-incubation was completed, 20 μL of culture medium containing 100 ng/mL LPS and 100 ng/mL IFN-γ (final concentrations of 10 ng/mL LPS and 10 ng/mL IFN-7) was added to each well to induce the activation of BV-2 cells. The culture plate was then incubated for 24 hours in the 37° C., 5% CO2 incubator. […]\n(§4) Step 5 (NO and CCL5 detection): The CCL5 levels in the supernatant were detected using an ELISA kit (Mouse CCL5/RANTES DuoSet ELISA; R&D; DY478-05), following the instructions provided with the kit. The nitric oxide (NO) levels in the supernatant were detected using the Griess Reagent System (Promega; G2930), following the instructions provided with the kit.\n(§5) Step 1: Firstly, the optical density values obtained from ELISA and Griess tests were used to plot a standard curve and calculate the absolute concentrations of each sample. The absolute concentration was then calibrated using the CTG fluorescence value corresponding to each sample to obtain the calibrated concentration. The formula for calculating the calibrated concentration was: calibrated concentration=absolute concentration/CTG fluorescence value of the same sample.\nStep 2: Based on the calibrated concentration of each sample, the relative percentage of CCL5 or NO secretion (i.e., CCL5 production (%) or NO production (%)) at each test concentration relative to the blank (DMSO) group was calculated. […]"}, "BV-2 cells": {"test_system": "BV-2 cells", "experiment": "CTG cell proliferation assay, LPS/IFN-γ-activated BV-2 cells", "assay_type": "cell-based, Mouse", "description": "as §1, §2, §3\n(§6) After the pre-incubation was completed, 20 μL of culture medium containing 100 ng/mL LPS and 100 ng/mL IFN-γ (final concentrations of 10 ng/mL LPS and 10 ng/mL IFN-7) was added to each well to induce the activation of BV-2 cells. The culture plate was then incubated for 24 hours in the 37° C., 5% CO2 incubator.\n(§7) Step 3: After 24 hours of treatment with the compound, the culture plate was centrifuged at 1200 rpm for 5 minutes. The supernatant was pipetted into another plate, which was sealed with tinfoil and stored at −20° C. for future ELISA and Griess reagent system assays. The cell culture plate from which the supernatant had been removed was immediately used for cell proliferation assays using the CellTiter-Glo (CTG) method.\nStep 4: In the cell culture plate from which the supernatant had been removed, 100 μL of PBS was added to each well. According to the instructions of the CellTiter-Glo (CTG) kit, 50 μL of pre-melted and room-temperature balanced CTG solution was added to each well. The plate was then mixed for 2 minutes using a microplate shaker. After letting it stand at room temperature for 10 minutes, the fluorescence signal value was measured using an Envision 2104 plate reader.\nStep 1: Using the CTG fluorescence signal values, the percentage of surviving cells (surviving cells %) at each test concentration relative to the blank (DMSO) group was calculated. The formula was: surviving cells %=fluorescence value of the test concentration group/fluorescence value of the blank group.\nStep 2: the percentage of surviving cells was plotted against the logarithm of the compound concentration. Nonlinear regression was used to fit the curve, and the formula “log(inhibitor) vs. response—Variable slope” in the software GraphPad Prism 5 was employed to calculate the IC50 value.\nStep 3: The formula for calculating the inhibition rate was: inh. (%)={fluorescence value of the blank group−fluorescence value of the test concentration group}/fluorescence value of the blank (DMSO) group."}, "[2]": {"test_system": "NO secretion by BV-2 cell line", "experiment": "NO secretion by LPS/IFN-γ-activated BV-2 cells (Griess Reagent System)", "assay_type": "cell-based, Mouse", "settings": "for IC50: Mus musculus, BV-2, 24 h co-incubation", "description": "as §1, §2, §3, §6, §7, §4, §5\nStep 2: Based on the calibrated concentration of each sample, the relative percentage of CCL5 or NO secretion (i.e., CCL5 production (%) or NO production (%)) at each test concentration relative to the blank (DMSO) group was calculated. The formula for calculating the relative percentage was: relative percentage %=(calibrated concentration of the test concentration group)/(calibrated concentration of the blank group).\nStep 3: Finally, the relative percentage of CCL5 secretion or the relative percentage of NO secretion was plotted against the logarithm of the compound concentration. […]"}, "[3]": {"settings": "24 h co-incubation, up to 10 μM"}},
  "note": "Read-outs that look alike come from different tables or passages of the source.",
  "data": [
    {"molecule": "CCc1cc(/C(C)=N/OCc2ccc(C3CCCCC3)c(C(F)(F)F)c2)ccc1CN1CC(C(=O)O)C1", "note": "[Siponimod, reference compound]", "values": [
      {"measurement": "Maximum inhibition rate on CCL5 secretion by BV-2", "setting": "[1]; [3]", "value": 35.16, "unit": "%"},
      {"measurement": "IC50", "setting": "[1]; Mus musculus, BV-2, 24 h co-incubation", "value": "> 10", "unit": "µM"},
      {"measurement": "inhibitory effect on cell proliferation", "setting": "BV-2 cells; 24 h co-incubation with BV-2, highest test concentration 10 μM", "value": "no significant inhibitory effect on cell proliferation"},
      {"measurement": "inhibition at up to 10 µM", "setting": "BV-2 cells; Mus musculus, BV-2, 24 h co-incubation, LPS/IFN-γ, highest concentration 10 μM, read-out: Maximum inhibition rate on BV-2 cell proliferation", "value": 4.44, "unit": "%"},
      {"measurement": "Maximum inhibition rate on NO secretion by BV-2", "setting": "[2]; [3]", "value": 7.71, "unit": "%"},
      {"measurement": "IC50", "setting": "[2]; read-out: IC50 on NO secretion by BV-2", "value": "> 10", "unit": "µM"},
      {"measurement": "IC50", "setting": "[2]; read-out: IC50 on NO secretion by BV-2 (text of b102)", "value": "> 10", "unit": "µM"}
    ]}
  ]
}
